Here are results for 2 molecules from patent publication US9012414B2, “Cosmetic composition” (Guerlain, priority 2010, dated 2015).

What all share (assay type): cell-based
For test [1], the system named is keratinocyte differentiation proteins (transglutaminase, involucrin, desmoglein 1). Kind of test: Stimulation of the differentiation of normal human keratinocytes (immunolabeling of differentiation proteins). To be noted: NHKs, 12 μg/ml, treatment 5 days. On the procedure:
(§1) The NHKs are cultured at passage 3 in complete KSFM medium in a T75 flask. At the pre-confluence stage, the NHKs are trypsinized and seeded in a proportion of 20 000 cells per well in 8-well Lab-Tek II culture systems (Nalge Nunc International), 4 wells per treatment condition. At 80% confluence, the cells are treated for 5 days with the various compositions of active agents (VT1, VT2, VT3, each at 12 μg/ml) until the post-confluence stage is reached. Vitactyl® clair (extract of Malva sylvestris, Silab) at 3% is used as a positive control.
(§2) The cells are rinsed with PBS (PBS Tablets, Invitrogen GIBCO) and then fixed with formalin (Formalin Solution, 10%, Neutral Buffered, Sigma) for 10 minutes.
(§3) After rinsing with PBS, the culture chambers are filled with a 0.1% Triton solution (Triton X-100, Sigma) for 10 minutes in order to permeabilize the membranes, and then rinsed twice with PBS. The cells are then covered with a solution of PBS/1% BSA (BSA, Sigma) for 30 minutes at ambient temperature. The PBS/BSA solution is removed from the slides by inclining them on absorbent paper. […]
(§4) For each condition, four photos are taken in green fluorescence (expression of the markers) with the ×20 objective. […]
(§5) The photos are analyzed using the Leica QWin image analysis software. A program is created in order to quantify the expression of these differentiation markers.

The test system of test [2] is mitochondrial dehydrogenases (complex I and complex II) of normal human keratinocytes (NHKs). Kind of test: Stimulation of mitochondrial dehydrogenases on keratinocytes (XTT conversion to formazan). To be noted: treatment 48 h; for Stimulation of mitochondrial dehydrogenase activity / mitochondrial respiratory functions (XTT): NHKs without irradiation, 6.25 to 0.78 μg/ml. On the procedure: Normal human keratinocytes (NHKs), isolated from eyelids of 37-year-old Caucasian women, are cultured at passage 3 in complemented (Invitrogen) Keratinocyte Serum Free Medium (KSFM, Invitrogen) supplemented with 5% of fetal calf serum (FCS, Invitrogen).
The NHKs are seeded in 96-well plates (Greiner Bio One) in a proportion of 1.10^4 cells/well, and then incubated at 37° C., 5% CO2 for 24 h. These cells are then treated, after UVB irradiation (60 mJ/cm^2 Vilbeit-Lourmat irradiator) or without irradiation, with serial dilutions of the VT1, VT2 and VT3 compounds (from 6.25 to 0.78 μg/ml) diluted in DMSO (sigma) 0.1% v/v final concentration. The plates are incubated at 37° C., 5% CO2. The untreated cells containing 0.1% v/v of DMSO are considered to be a negative control. After treatment for 48 h, the supernatants are removed and the XTT solution (Cell proliferation kit II, Roche Diagnostic) is deposited in each well in order to determine the overall activity of the mitochondrial dehydrogenases. This activity is evaluated by means of the conversion of an XTT tetrazolium salt to soluble formazan, via a cell mechanism which calls for the enzymatic activities of the glycolytic NAD(P)H dehydrogenase (complex I) and of succinate dehydrogenase (complex II), which are constituents of the mitochondrial respiratory chain. The amount of colored formazan (determined by reading optical density at 450 nm) is directly related, firstly, to the enzymatic activity of the mitochondrial dehydrogenases and, secondly, to the amount of metabolically active cells (Roehm et al. J. Immunol. Methods, 1991; 142: 257-265). […] The 96-well plates are read at 450 nm with a spectrofluorometer (SpectraFluor Plus, Tecan). […]
The results are expressed as mean of the optical densities (OD) at 450 nm and standardized relative to the total concentration of cell proteins (expressed in μg/ml), which makes it possible to measure only the activity of the dehydrogenases and to dispel with the impact of cell proliferation on the measurement of the ODs obtained. […]

The subject of another test is involucrin. As to the kind of experiment: Involucrin expression in normal human keratinocytes (immunolabeling). As to conditions: NHKs, 12 μg/ml, treatment 5 days. The method, then: as §1, §2, §3, §4, §5

Take `O=C(CC(O)(Cc1ccc(O)cc1)C(=O)O)OCc1ccc(O[C@@H]2O[C@H](CO)C(O)[C@H](O)[C@H]2O)cc1` (stereo partly drawn) [VT1, 4-(4-β-D-glucopyranosyloxybenzyl)-(2R)-2-(p-hydroxybenzyl) malate]: the “Stimulation of keratinocyte differentiation protein expression compared with the negative control” value in test [1] is “most effective”. In test [2], the “Stimulation of mitochondrial dehydrogenase activity / mitochondrial respiratory functions (XTT)” value is “most effectively stimulate”.

`O=C(CC(O)(Cc1ccc(O)cc1)C(=O)OCc1ccc(O[C@@H]2O[C@H](CO)[C@@H](O)[C@H](O)[C@H]2O)cc1)OCc1ccc(O[C@@H]2O[C@H](CO)[C@@H](O)[C@H](O)[C@H]2O)cc1` (stereo partly drawn) [VT2, 1,4-bis(4-β-D-glucopyranosyloxybenzyl)-(2R)-2-(p-hydroxybenzyl) malate]: in the test on involucrin, the “Involucrin expression compared with positive control Vitactyl clair at 3%” value is reported as “greater than that of the positive control”. The “Stimulation of keratinocyte differentiation protein expression compared with the negative control” value in test [1] was “most effective”. The “Stimulation of mitochondrial dehydrogenase activity / mitochondrial respiratory functions (XTT)” value in test [2] is on record as “most effectively stimulate”. Moreover, the “Stimulation of the activity of the dehydrogenases relative to the negative control” value in test [2] (NHKs, 0.78 μg/ml (1 μM), negative control DMSO 0.1%) is “+39%”.
